The source of these data is patent US20160263140A1, “USE OF COMPOUNDS ACTIVATING SIRT-3 FOR MIMICKING EXERCISE” (President and Fellows of Harvard College, priority 2007, published 2016).

Entries after “also recorded” stand apart in the source; their conditions may differ.

Data set [1] deals with mitochondria from fresh rat livers. In words: NAD+ levels in isolated liver mitochondria by HPLC-MALDI-MS. The note with it: for change of mitochondrial NAD+ levels (in words): FK866 10 nM and/or MMS 1:1000, 30 min at 37° C. How it is done: Unless otherwise stated, fractionation of cultured cells was performed using a differential centrifugation and sucrose gradient procedure with slight modifications (Schwer et al., 2002). For drug treatment of mitochondria, fresh mitochondria were obtained from livers excised from fed young male rats. Half of the liver homogenate was used for mitochondrial isolation using a commercially available kit as described by manufacturer's instructions, designated Protocol 1 (Pierce Mitochondrial Isolation kit, Rockford, Ill.). The other half of the original homogenate was subjected to a differential centrifugation protocol to isolate mitochondria (Protocol 2). Mitochondria (500 μl) were added to a 48-well plate and treated with methylmethane sulfonate (MMS) at 1:1000 dilution and/or FK866 (10 nM) for 30 min at 37° C. Suspensions were spun down for 1 min at 14,000 rpm at 4° C. and pellets were stored at −80° C. prior to NAD^+ analysis by HPLC-MALDI-MS. Detailed protocols are described in Supplemental Information.
NAD^+ was determined by as described previously (Sauve and Schramm, 2003), with the following modifications. HEK293 or HT1080 cells were harvested by trypsinization and counted by haemocytometer. NAD^+ was extracted from whole cells or mitochondrial pellets by adding 10% perchloric acid and sonicating for 5 min on ice. The reference standard ^18O-NAD^+ (typically […]) was then added to the sample. After mixing well, samples were centrifuged for 3 min then neutralized with NaOH. NAD^+ in the supernatant (100 μL sample) was separated from other cellular components by HPLC. NAD^+ peaks were collected according to the standards' retention time and dried with a lyophilizor. […] The volume of mitochondrial pellets was calculated by considering the density of the mitochondria pellets to be 1.0 μL/mg. Total cellular NAD^+ concentrations were calculated by dividing the quantity of NAD^+ per cell by the mean cell volume (MCV) as measured by a Coulter counter, which for HT1080 was […] and for HEK293 was […]. […]

Data set [2] deals with HEK293 cells. The data set can be described thus: Cell death assay after MMS treatment (FACS, propidium iodide). The following applies: for effect on Nampt-mediated cell protection/survival against MMS: HEK293 cells stably overexpressing Nampt, MMS treatment, sirtinol 100 μM. In kind it is cell-based. The method, then: Human embryonic kidney (HEK293) and human fibrosarcoma HT1080 cell lines were obtained from ATCC and grown in complete DMEM medium with 10% FBS and 100 μg/ml penicillin/streptomycin. To generate Nampt overexpression or empty vector stable clones, hNAMPT/pcDNA or pcDNA empty vector were transfected into HEK293 or HT1080 cells and selected with 0.5-1.0 mg/ml geneticin. To generate Nampt knockdown cells, siRNA/NAMPT/pMSCV or pMSCV empty vector were transfected into HT1080 cells, and stable clones were selected with 500 ng/ml puromycin. Primary neonatal rat cardiomyocytes were prepared as described previously (Matsui et al., 1999). Isolated cardiomyocytes were grown in complete medium (RPMI 1640, 5% fetal calf serum, 10% horse serum) to 80% confluence before cells were subjected to hypoxia and/or serum starvation. For hypoxia, medium was changed to RPMI 1640 with or without serum saturated with 95% N2/5% CO2 and then cells were placed in a 37° C. airtight box saturated with 95% N2/5% CO2 for 18 hours. O2 concentrations were <0.1% (Ohmeda oxygen monitor, type 5120). To serum starve HT1080, cells were grown in DMEM medium containing no serum. Cells were harvested after 26 h of serum starvation and Nampt expression was analyzed by Western blotting.
(§1) HEK293 and HT1080 cells at less than 85% confluency were treated with MMS (1.2 mM) for 6-8.5 h and 8-17 h, respectively. Transiently transfected cells were washed 3 times with PBS to remove residual transfection reagents before treating with MMS. HEK293 cells and HT1080 cells were exposed to etoposide for 72 h or 46 h, at 120 or 40 μM, respectively. HT1080 cells were exposed to camptothecin at 14 μM for 23 h. After drug treatments, cells were harvested by trypsinization, pelleted by centrifugation and resuspended in PBS containing 3% FBS. Cell death was analyzed by FACS using propidium iodide (PI) staining. Cells transiently-transfected with mNAMPT/MSCV, SIRT1-7 siRNA, Nmnat-3, or hMFT siRNA oligos and co-transfected with FAM-labeled scrambled siRNA oligos, percent cell death was determined by as the proportion of PUGFP or PIFAM positive cells versus the total number of cells with green fluorescence.

The test system of data set [3] is HEK293 cells. The data set can be described thus: Total cellular NAD+ by HPLC-MALDI-MS after MMS. The following applies: 1.2 mM MMS, 2 and 4 h, irrespective of Nampt levels. Type of data set: cell-based, human. The method, then:
as §1
NAD^+ was determined by as described previously (Sauve and Schramm, 2003), with the following modifications. HEK293 or HT1080 cells were harvested by trypsinization and counted by haemocytometer. NAD^+ was extracted from whole cells or mitochondrial pellets by adding 10% perchloric acid and sonicating for 5 min on ice. […] The volume of mitochondrial pellets was calculated by considering the density of the mitochondria pellets to be 1.0 μL/mg. […]

The subject of data set [4] is AMPK. The data set can be described thus: AMPK phosphorylation in C2C12 myotubes (Western blot). In kind it is cell-based, murine. The note with it: 40 μM, 3-hour treatment; vector- and SIRT3-transfected C2C12 myotubes. How it is done: (§2) C2C12 myocytes and BOSC23 cells were cultured in Dulbecco's modified Eagle's medium containing 10% bovine calf serum. For C2C12 differentiation, at confluence, cells were incubated in Dulbecco's modified Eagle's medium with 2% horse serum (Hyclone, Logan, Utah) for three days. Inhibition of AMPK in selected studies was achieved by adding compound C (6-[4-(2-Piperidin-1-yl-ethoxy)-phenyl)]-3-pyridin-4-yl-pyrrazolo[1,5-a]-pyrimidine, Merck) (31) to the media for 3 hours at a final concentration of 40 μM. […]

In data set [5] the test system is GLUT4. The data set can be described thus: GLUT4 protein expression in SIRT3-expressing C2C12 myotubes (Western blot). The note with it: 40 μM, 3-hour treatment. Type of data set: cell-based, murine. How it is done: as §2
In general terms: A western blot detects proteins with antibodies after separation by electrophoresis.

For `O=C(/C=C/c1cccnc1)NCCCCC1CCN(C(=O)c2ccccc2)CC1` [FK866], the “change of mitochondrial NAD+ levels (in words)” value in data set [1] was “even larger decreases in mitochondrial NAD+ levels; also recorded: reduced”. Further, in data set [2], the “effect on Nampt-mediated cell protection/survival against MMS” value is recorded as “prevented cell protection by Nampt overexpression; also recorded: the effect is blocked”.
On to `COS(C)(=O)=O` [MMS, methylmethane sulfonate], for which the “change of mitochondrial NAD+ levels (in words)” value in data set [1] is listed as “reduced”. Besides, in data set [1] (MMS 1:1000 dilution, 30 min at 37° C.), the “reduction of mitochondrial NAD+ levels” value is listed as roughly 2 fold. Also, in data set [2] (1.2 mM MMS, vector control cells), the “cell death caused by MMS treatment” value is on record as “death of about half the vector control cells”. Also, in data set [3], the “total NAD+ concentration after MMS treatment” value is less than 100 µM.
Turning to `O=C1NCCc2c(OCCCCN3CCCCC3)cccc21` [DPQ, 3,4-dihydro-5-[4-(1-piperidinyl)butoxy]-1(2H)-isoquinolinone], the “extent of MMS-induced cell death” value in data set [2] (HEK293 cells, MMS, 30 μM DPQ) was “greatly reduced; also recorded: Attenuated”.
As for `c1cc(-c2cnn3cc(-c4ccc(OCCN5CCCCC5)cc4)cnc23)ccn1` [compound C], the AMPK phosphorylation result in data set [4] is on record as “decreased AMPK phosphorylation”. In addition, the “ability of SIRT3 to increase GLUT4 protein expression” value in data set [5] is “completely abolished”.
For `CC(NC(=O)c1ccccc1/N=C/c1c(O)ccc2ccccc12)c1ccccc1` (stereo not shown) [sirtinol], the “effect on Nampt-mediated cell protection/survival against MMS” value in data set [2] is recorded as “did block the ability of Nampt overexpression to protect cells”.
